The text below walks through data of US7001756B1, “Microorganism strain of GM-020 of Lactobacillus rhamnosus and its use for treating obesity” (GenMont Biotech Inc., priority 2004, dated 2006).

A short description of series [1]: Obesity model: body weight of ICR mice on high energy diet. The conditions noted are these: GM-020 10^9 CFU/mL or PPA 4.875 mg each time, twice a day. The series is classed as in vivo. Here is the method: (§1) Food and water were supplemented sufficiently. The mice were divided into two groups. […] The mice's body weights were measured every week.
(§2) The treatments were administrated twice a day.
Body weight difference: After treated for 4 weeks, blood samples were collected from the tails for biochemical assay.

A short description of series [2]: Obesity model: serum concentration of fat metabolites. The series is classed as in vivo, ICR mice. The following applies: 4 weeks treatment, GM-020 10^9 CFU/mL or PPA 4.875 mg each time, twice a day. Here is the method:
as §1, §2
Serum concentration of fat metabolites: Blood samples were collected from the tails for biochemical assay. The blood samples were stayed at room temperature for 1 hour and centrifuged at 2,500 rpm for 10 minutes. The upper layer of serum was taken for assay.
The concentration of triacylglycol (TG) of each group was assayed with TRI[…] LIQUID REAGENT™ (ASK®, Taiwan) and the absorption was measured with Autoanalyzer Hitachi™ 7150. The concentration of total cholesterol (CHOL) was assayed with C[…] REAGENT™ (ASK®, Taiwan), and the absorption was measured with Autoanalyzer Hitachi™ 7150.

The nature of series [3]: Obesity model: lipid tissue weight around the testicle and the kidney. The series is classed as in vivo, ICR mice. The following applies: after 4 weeks treatment; GM-020 10^9 CFU/mL or PPA 4.875 mg each time, twice a day. Here is the method: as §1, §2
Differences of lipid tissue weight around the testicle: The mice were sacrificed, and the lipid tissues around the testicle were taken and weighted.
Differences of lipid tissue weight around the kidney: The mice were sacrificed, and the lipid tissues around the kidney were taken and weighted.

Series [4] is described as follows: Obesity model: liver concentration of fat metabolites. The series is classed as in vivo, ICR mice. The following applies: right lobe of liver; 4 weeks treatment; GM-020 10^9 CFU/mL or PPA 4.875 mg each time, twice a day. Here is the method: as §1, §2
Liver concentration of fat metabolites: The mice were sacrificed, and the right lobe of liver was taken. The fat was extract according to the conventional method.
For each sample, the concentration of triacylglycol (TG) and total cholesterol (CHOL) were assayed as mentioned above.

A short description of series [5]: Liver and kidney function assays (serum GOT, GPT, creatinine, uric acid). The conditions noted are these: 4 weeks treatment, GM-020 10^9 CFU/mL or PPA 4.875 mg each time, twice a day. Here is the method: Animal model: Male ICR mice were purchased from National Laboratory Animal Center in Taiwan and raised alone in light for 12 hours and in dark for 12 hours at a temperature of 25±1° C. and a humidity of 60±5%. Food and water were supplemented sufficiently. The mice were divided into two groups. One was normal control group and the other was high energy group. The normal control group was fed with normal diet, and the high energy group was fed with high energy diet containing 48% dry feeding stuff, 8% corn oil and 44% condensed milk. The mice's body weights were measured every week. The high energy group was further divided into groups as listed below according treatment: (a) 1× of wood ear, (b) 1× of wood ear combined with GM-020, (c) GM-020, (d) 10× of wood ear, (e) 10× of wood ear combined with GM-020, (f) negative control treated with normal saline, and (g) positive control treated with PPA.
Treatment with GM-020 and/or wood ear: The normal control group was fed with normal diet continuously. The treatments were administrated twice a day. The dosage of PPA was 4.875 mg each time. In the meal of 1× of wood ear, there was 15.6 mg of wood ear in 3 g diet, and in the meal of 10× of wood ear, there is 156 mg of wood ear in 3 g diet. The dosage of GM-020 was 10^9 CFU/mL.
Liver and kidney function assays: The blood samples were treated as described above.
For each sample, the concentration of creatinine was assayed according to Jaffe Reaction method (Unichem®, Japan) and the absorption was measured with Autoanalyzer Hitachi™ 7150. The concentration of GOT was assayed with GOT (ASAT) IFCC mod™. (HUMAN®, Germany) and the absorption was measured with Autoanalyzer Hitachi™ 7150. The concentration of GPT was assayed with GPT (ALAT) IFCC mod™. (HUMAN®, Germany) and the absorption was measured with Autoanalyzer Hitachi™ 7150. The concentration of uric acid (UA) was assayed according to uricase-peroxidase method (Unichem®, Japan) and the absorption was measured with Autoanalyzer Hitachi™ 7150.
The data were analyzed with Kruskal Wallis H Test, and that of the normal control group was taken as a baseline for Dunnett Test.

Molecules are shown by their SMILES.

As to `CC(N)C(O)c1ccccc1` (centres unmarked) [Positive Control, phenylpropanolamine], the “body weight compared with the negative control group” value in series [1] (after 2 weeks) was “significant decrease”. The “body weight compared with the negative control group” value in series [1] (after 3 weeks) was “significant decrease”. Also, in series [2], the “CHOL (serum concentration of total cholesterol)” value is recorded as 219.08 ± 11.22, the “HDL (serum concentration of HDL-C)” value is 123.19 ± 4.20, the “LDL (serum concentration of LDL-C)” value is given as 10.04 ± 0.93 and the “TG (serum concentration of triacylglycol)” value was found to be 75.83 ± 9.93. Also, in series [3], the “lipid tissue weight around the kidney compared with the negative control group” value was “little difference” and the “lipid tissue weight around the testicle compared with the negative control group” value is listed as “significant decrease”. Moreover, in series [4], the “CHOL (liver concentration of total cholesterol)” value was determined as 26.75 ± 1.48 and the “TG (liver concentration of triacylglycol)” value came out at 103.58 ± 11.41. Besides, in series [5], the Creatinine was 0.56 ± 0.03, the GOT is 117.50 ± 12.95, the GPT turned out to be 47.00 ± 6.17 and the “UA (uric acid)” value is 2.42 ± 0.50.
